# Measurements: patent US20240116985A1, “STAPLED PEPTIDES AND METHODS THEREOF” (priority 2020, published 2024)
# Several values for one entry are separate records, joined by “and”; a condition that tells them apart may be missing. Equal values may be shown once. Read-outs that look alike come from different tables or passages of the source.
# Tests used:
# [1] = CHI Log D procedure; type: physicochemical; settings: for chromatographic logD: pH 7.4, CHI Log D
# [2] = biological target: T1, full-length B-Catenin (Uniprot ID P35222) (Homo sapiens, UniProt P35222); experiment: Alphascreen binding assay (beta-catenin / biotin-TCF4 10-53)
# T1 construct: 65 nM full-length B-Catenin (Uniprot ID P35222)
# T1 sequence (P35222 1-781): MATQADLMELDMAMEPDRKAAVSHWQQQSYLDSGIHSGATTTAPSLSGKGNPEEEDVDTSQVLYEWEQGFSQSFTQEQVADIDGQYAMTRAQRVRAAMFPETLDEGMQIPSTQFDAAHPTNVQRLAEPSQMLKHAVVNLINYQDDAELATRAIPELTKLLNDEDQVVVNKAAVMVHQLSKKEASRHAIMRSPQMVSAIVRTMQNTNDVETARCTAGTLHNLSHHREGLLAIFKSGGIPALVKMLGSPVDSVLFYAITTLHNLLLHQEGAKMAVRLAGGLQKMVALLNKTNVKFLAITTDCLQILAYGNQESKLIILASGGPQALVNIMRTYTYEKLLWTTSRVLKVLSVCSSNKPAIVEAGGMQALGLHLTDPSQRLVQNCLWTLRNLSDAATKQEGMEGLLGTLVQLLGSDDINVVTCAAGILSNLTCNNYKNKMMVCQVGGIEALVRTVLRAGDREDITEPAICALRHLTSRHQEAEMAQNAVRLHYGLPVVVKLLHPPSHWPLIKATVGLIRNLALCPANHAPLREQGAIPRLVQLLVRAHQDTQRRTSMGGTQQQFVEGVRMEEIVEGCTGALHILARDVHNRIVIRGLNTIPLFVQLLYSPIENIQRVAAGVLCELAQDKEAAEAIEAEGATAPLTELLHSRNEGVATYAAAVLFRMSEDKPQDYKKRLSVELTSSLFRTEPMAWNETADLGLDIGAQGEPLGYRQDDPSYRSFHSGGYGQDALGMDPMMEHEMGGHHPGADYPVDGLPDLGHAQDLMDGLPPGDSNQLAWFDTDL
# Method: In some embodiments, an assay is an Alphascreen binding assay. A useful protocol is described below as an example.
# Alphascreen binding assay: Using the AlphaScreen Histidine (Nickel Chelate) Detection Kit (PerkinElmer), peptide solutions were prepared in buffer (50 mM Tris pH 8.0, 250 mM NaCl, 2% glycerol, 0.03% Tween-20, 0.01% TritonX-100, 0.1% BSA w/v) using a 3-fold serial dilution from 10 uM to 5 nM. Probe solution (65 nM full-length B-Catenin (Uniprot ID P35222), mixed with 10 nM biotin labeled TCF4 residues 10-53 (Uniprot ID Q9NQB0) peptide in buffer) was prepared and 4 uL per well was plated in a white polystyrene 384-well plate (Corning). Equal volume of the titrated peptide was added to the plate and incubated for 15 minutes at 20° C. Then 4 uL of donor and 4 uL acceptor beads at 10 ug/mL were added to the plate, for a 16 uL reaction pool and protected from light for 60 minutes at 20° C. prior to read. Reads were performed on a CLARIOstar plate reader (BMG Labtech) in duplicate, and data were fitted to a 1:1 binding model with hill slope using an in-house script. All provided concentrations are final concentrations.
# [3] = biological target: T2, full-length beta-Catenin (Uniprot ID P35222) (Homo sapiens, UniProt P35222); experiment: Fluorescence polarization IC50 (beta-catenin / 5FAM-TCF4 10-53 competition); type: binding; settings: read-out: beta-Catenin FP IC50
# T2 construct: 10 nM full-length beta-Catenin (Uniprot ID P35222)
# T2 sequence (P35222 1-781): T1 sequence (P35222 1-781)
# [4] = Solubility in PBS; type: physicochemical; settings: Solubility (uM)
# Procedure, shortened: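 PBS sample ultracentrifuged; supernatant run on HPLC vs. 50 μM peptide in DMSO standard. Solubility = (PBS peak area / DMSO peak area) × 50 uM.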
# [5] = system: TCF/LEF luciferase Reporter in DLD1 cells; experiment: TCF reporter assay (DLD1 TCF/LEF luciferase reporter, Bright-Glo); type: cell-based; settings: for DLD1 TCF c2 BrightGlo % Inhibition: replicates
# Procedure, shortened: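 Readouts: Bright-Glo luciferase for reporter signal and CellTiter-Glo for cell viability, with absolute IC50 derived. The reporter clone came from lentiviral TCF/LEF-luciferase transduction of DLD1 cells, seeded 5000 cells/well in RPMI with 4% FBS and exposed overnight to serially diluted compounds.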
# [6] = biological target: T3, beta-catenin/TCF4 engagement (Homo sapiens, UniProt P35222); experiment: Nano-BRET target engagement assay (B-cat-Halo & TCF4-Luc in HEK293 cells); type: cell-based
# T3 construct: expressed in transfected cells; host or cells: HEK293
# T3 sequence (P35222 1-781): T1 sequence (P35222 1-781)
# [7] = absolute IC50, read-out: DLD1 reporter assay Abs IC50
# [8] = read-out: DLD1 4% Abs IC50, DLD1 4%
# [9] = absolute IC50, read-out: NanoBRET Abs IC50
# [10] = first dose = 20 uM (plate map), 20 µM
# [11] = third dose = 5 uM (plate map), 5 µM
SMILES,CHI Log D ([1]; pH 7.4),EC50 [2] [nM],IC50 [3] [nM],Solubility [4] [µM],chromatographic logD [1],"IC50 [5, 7] [µM]",IC50 ([6]; read-out: NanoBRET Abs IC50) [µM],IC50 ([6]; read-out: NanoBRET IC50) [µM],"IC50 [5, 8] [µM]","IC50 [6, 9] [µM]","DLD1 TCF c2 BrightGlo % Inhibition [5, 10]",DLD1 TCF c2 BrightGlo % Inhibition ([5]; 0.625 µM),DLD1 TCF c2 BrightGlo % Inhibition ([5]; 1.25 µM),DLD1 TCF c2 BrightGlo % Inhibition ([5]; 2.5 µM),DLD1 TCF c2 BrightGlo % Inhibition ([5]; 10 µM),"DLD1 TCF c2 BrightGlo % Inhibition [5, 11]"
"CC(=O)N1CCC[C@]12CC=CCCCC1(CCCC=CCCCCCC[C@@](C)(C(=O)N[C@@H](Cc3cccc(C(F)(F)F)c3)C(=O)N[C@@H](Cc3c[nH]c4ccccc34)C(=O)N[C@@H](CCC(N)=O)C(N)=O)NC(=O)[C@H](C(C)C)NC(=O)[C@H](Cc3ccccc3)NC(=O)[C@H](C)NC(=O)[C@H](C)NC(=O)[C@H](CC(=O)O)NC(=O)[C@H](CC(=O)O)NC1=O)NC(=O)[C@H](C)NC(=O)[C@H](CC(=O)O)NC2=O (stereo partly drawn) [I-248, Ac-PL3-Asp-Ala-B5-Asp-Asp-Ala-Ala-Phe-Val-S8-3F3MeF-Trp-Gln-NH2]",2.263,2830,,,,,,,,,,,,,,
"COc1ccc(C[C@@H]2NC(=O)[C@H](C)NC(=O)[C@H](C)NC(=O)[C@H](CCC(=O)O)NC(=O)[C@H](CC(=O)O)NC(=O)C3(CCCC=CCCCCCC[C@@](C)(C(=O)N[C@@H](Cc4ccccc4)C(=O)N[C@@H](Cc4c[nH]c5ccccc45)C(=O)N[C@@H](CCC(N)=O)C(N)=O)NC(=O)[C@H](C(C)C)NC2=O)CCCC=CC[C@]2(CCCN2C(C)=O)C(=O)N[C@@H](CC(=O)O)C(=O)N[C@@H](C)C(=O)N3)cc1 (stereo partly drawn) [I-218, Ac-PL3-Asp-Ala-B5-Asp-Glu-Ala-Ala-MeTyr-Val-S8-Phe-Trp-Gln-NH2]",,90,,,,,,,,,,,,,,
"CC(=O)N1CCC[C@]12CC=CCCCC1(CCCC=CCCCOC(=O)N3CC[C@@](C(=O)N[C@@H](Cc4ccsc4)C(=O)N[C@@H](Cc4csc5ccccc45)C(=O)N[C@@H](CCC(N)=O)C(N)=O)(C3)NC(=O)[C@H](Cc3ccccc3)NC(=O)[C@H](Cc3ccccc3)NC(=O)[C@H](C)NC(=O)[C@H](C)NC(=O)[C@H](CC(=O)O)NC(=O)[C@H](CC(=O)O)NC1=O)NC(=O)[C@H](CC(C)(C)C)NC(=O)[C@H](CC(=O)O)NC2=O (stereo partly drawn) [I-807, Ac-PL3-Asp-Npg-B5-Asp-Asp-Ala-Ala-Phe-Phe-PyrS2-3Thi-BztA-Gln-NH2]",,,5,24,2.27,3.4,3.2,5.3,,,,,,,,
"CC(=O)N1CCC[C@]12CC=CCCCC1(CCCC=CCCCOC(=O)N3CC[C@@](C(=O)N[C@@H](Cc4ccccc4Cl)C(=O)N[C@@H](Cc4csc5ccccc45)C(=O)N[C@@H](CCC(N)=O)C(N)=O)(C3)NC(=O)[C@H](CC(N)=O)NC(=O)[C@H](Cc3ccccc3)NC(=O)[C@H](C)NC(=O)[C@H](Cc3ccccc3)NC(=O)[C@H](CN(CC(=O)O)CC(F)(F)F)NC(=O)[C@H](CC(=O)O)NC1=O)NC(=O)[C@H](CC(C)(C)C)NC(=O)[C@H](CC(=O)O)NC2=O (stereo partly drawn) [I-1008, Ac-PL3-Asp-Npg-B5-Asp-TfeGA-Phe-Ala-Phe-Asn-PyrS2-2C1F-BztA-Gln-NH2]",,,9,34,2.43,13,,,4.7,14,,,,,,
"CC(=O)N1CCC[C@]12CC=CCCCC1(CCCC=CCCCOC(=O)N3CC[C@@](C(=O)N[C@@H](Cc4ccccc4Cl)C(=O)N[C@@H](Cc4csc5ccccc45)C(=O)N[C@@H](CCC(N)=O)C(N)=O)(C3)NC(=O)[C@H](CC(N)=O)NC(=O)[C@H](Cc3ccccc3)NC(=O)[C@H](CO)NC(=O)[C@H](C)NC(=O)[C@H](CN(CC(=O)O)CC(F)(F)F)NC(=O)[C@H](CC(=O)O)NC1=O)NC(=O)[C@H](CC(C)(C)C)NC(=O)[C@H](CC(=O)O)NC2=O (stereo partly drawn) [I-1004, Ac-PL3-Asp-Npg-B5-Asp-TfeGA-Ala-Ser-Phe-Asn-PyrS2-2C1F-BztA-Gln-NH2]",,,5,47,2,> 20,,,,10.6,,,,,,
"CC(=O)N1CCC[C@]12CC=CCCCC1(CCCC=CCCCOC(=O)N3CC[C@@](C(=O)N[C@@H](Cc4ccccc4Cl)C(=O)N[C@@H](Cc4csc5ccccc45)C(=O)N[C@H](CO)[C@@H](C)O)(C3)NC(=O)[C@H](CC(N)=O)NC(=O)[C@H](Cc3ccccc3)NC(=O)[C@H](C)NC(=O)[C@H](C)NC(=O)[C@H](CC(=O)O)NC(=O)[C@H](CC(=O)O)NC1=O)NC(=O)[C@H](CC(C)(C)C)NC(=O)[C@H](CC(=O)O)NC2=O (stereo partly drawn) [I-1082, Ac-PL3-Asp-Npg-B5-Asp-Asp-Ala-Ala-Phe-Asn-PyrS2-2C1F-BztA-Thro1]",,,5,48,2.33,4.8,,,,14.1,76.5% and 77.1% and 79.9%,14.1% and 17.4% and 20.3%,14.0% and 21.5% and 24.0%,17.3% and 36.1% and 37.9%,63.9% and 71.0% and 75.0%,38.5% and 56.2% and 62.0%
"CCNC(=O)[C@H](CCC(N)=O)NC(=O)[C@H](Cc1csc2ccccc12)NC(=O)[C@H](Cc1ccccc1Cl)NC(=O)[C@]12CCN(C1)C(=O)OCCCC=CCCCC1(CCCC=CC[C@]3(CCCN3C(C)=O)C(=O)N[C@@H](CC(=O)O)C(=O)N[C@@H](CC(C)(C)C)C(=O)N1)C(=O)N[C@@H](CC(=O)O)C(=O)N[C@@H](CC(=O)O)C(=O)N[C@@H](C)C(=O)N[C@@H](C)C(=O)N[C@@H](Cc1ccccc1)C(=O)N[C@@H](CC(N)=O)C(=O)N2 (stereo partly drawn) [I-1079, Ac-PL3-Asp-Npg-B5-Asp-Asp-Ala-Ala-Phe-Asn-PyrS2-2C1F-BztA-Gln-NHEt]",,,5,45,2.5,14.5,,,,19.7,55.6% and 58.1% and 54.7%,1.4% and 6.9% and 6.8%,1.4% and −0.6% and 2.6%,−25.7% and −0.8% and 5.1%,34.2% and 39.4% and 42.0%,7.4% and 16.0% and 26.5%
"CC(=O)N1CCC[C@]12CC=CCCCC1(CCCC=CCCCOC(=O)N3CC[C@@](C(=O)N[C@@H](Cc4ccccc4Cl)C(=O)N[C@@H](Cc4csc5ccccc45)C(=O)N[C@@H](C(N)=O)[C@H](C)O)(C3)NC(=O)[C@H](CC(C)C)NC(=O)[C@H](Cc3ccccc3)NC(=O)[C@H](C)NC(=O)[C@H](C)NC(=O)[C@H](CC(=O)O)NC(=O)[C@H](CC(=O)O)NC1=O)NC(=O)[C@H](CC(C)(C)C)NC(=O)[C@H](CC(=O)O)NC2=O (stereo partly drawn) [I-1035, Ac-PL3-Asp-Npg-B5-Asp-Asp-Ala-Ala-Phe-Leu-PyrS2-2C1F-BztA-dThr-NH2]",,,21,28,2.63,> 20,,,,10.2,,,,,,
"CC(=O)N1CCC[C@]12CC=CCCCC1(CCCC=CCCCOC(=O)N3CC[C@@](C(=O)N[C@@H](Cc4ccccc4Cl)C(=O)N[C@@H](Cc4csc5ccccc45)C(=O)N[C@@H](CO)C(N)=O)(C3)NC(=O)[C@H]([C@@H](C)O)NC(=O)[C@H](Cc3ccccc3)NC(=O)[C@H](C)NC(=O)[C@H](C)NC(=O)[C@H](CC(=O)O)NC(=O)[C@H](CC(=O)O)NC1=O)NC(=O)[C@H](CC(C)(C)C)NC(=O)[C@H](CC(=O)O)NC2=O (stereo partly drawn) [I-1015, Ac-PL3-Asp-Npg-B5-Asp-Asp-Ala-Ala-Phe-Thr-PyrS2-2C1F-BztA-Ser-NH2]",,,5,47,2.27,9,,,5.7,8.9,,,,,,
